*1 amine or outer side, *2 acyl side, *3 side chain or, on linkers, in order; H or OH if unused. Where a SMILES comes first, the peptide text is derived from it. Bridges are numbered along the chain shown (N, C = ends). [ ]: non-standard residue; d: D form. Trp(2-yl) = O=C([C@H](Cc1c([*:3])[nH]c2ccccc12)N[*:1])[*:2]; Leu(4R-OH,5-OH) = C[C@](O)(CO)C[C@H](N)C(=O)O; dAsp(3S-OH) = N[C@@H](C(=O)O)[C@H](O)C(=O)O; cisHyp = O=C(O)[C@@H]1C[C@H](O)CN1
Columns and labels:
[1] = Peptide toxins in the urine of beagles with biliary drainage; format: in vivo, beagle dogs; details: for Total (accumulated) amount excreted in urine / percentage of total urine excretion, Total: 0–4 days
Method: (§1) The study was approved by National Institute of Occupational Health and Poison Control review board for animal experiments. Twenty-four male beagles (age, 8–10 months; weight, 10 ± 1 kg) were obtained from Beijing Institute of Xieerxin Biology Resource (Beijing, China). They were randomly divided into four groups of six animals each: control, biliary drainage, and 20 and 60 mg/kg with biliary drainage groups. The biliary drainage operation was conducted in all groups barring the control group. The dogs were dressed in homemade underwear, coats, and Elizabeth circles for a week to ensure pre-experimental acclimatization (Figure S8a–c). After determining the baseline values for biochemical indicators, the dogs were fasted for 24 h but received water ad libitum. They were anesthetized by intravenous administration of pentobarbital sodium (3%, 1 mL/kg) during the surgery. A temperature of 38–39 °C was maintained with a warming mat. After skin preservation and sterilization, the abdominal cavity was opened through the central abdomen. The abdomen was explored and blunt dissection of the common bile duct was performed (Figure S8d). The common bile duct and its branches were ligated from the intestinal side. A 7.0-Fr drainage catheter (COOK, Bloomington, IN, USA) was percutaneously inserted into the gallbladder, and a medical drainage bag was connected to the drainage catheter coming out of the abdominal cavity. Each opened layer, including the peritoneum, abdominal wall muscle, and skin, was closed with suture. The operative incision was protected with sterile gauze and a bandage, and the dogs were dressed in homemade underwear, coats, and Elizabeth circles. The drainage bag was placed in the pocket of the coat (Figure S8e). After the anesthetic wore off, the dogs were placed in cages, and food and water were provided ad libitum. The operative incision was sterilized with iodophor twice a day until stitches were removed six days after surgery. The drainage bag was replaced every day. On the eighth day after surgery, the 20 and 60 mg/kg with biliary drainage groups were orally administered a lyophilized powder of Amanita exitialis in starch capsules. In control and bile drainage group, the beagle dogs were fed with empty capsules. Immediately after dosing, the animals were placed in their cages, and food and water were provided ad libitum. Dogs were sacrificed with an overdose of sodium pentobarbital at the end of the experiment. All procedures were performed according to the ethical standards of the National Institutes of Health Guide for Animal Welfare and approved by the Institutional Animal Care and Use Committee (EAWE-2017-005).
(§2) Peptide toxins in blood and urine samples were analyzed as described previously. Bile samples from Days 0–1, Days 1–2, Days 2–3, and Days 3–4 were collected and stored in medical drainage bags and the bile volume was recorded. Plasma and urine samples were stored at 2–8 °C until analysis for peptide toxins.
(§3) UPLC and MS/MS parameters were as described in our previous study. The limit of detection and limit of quantitation of each toxin in the bile were 0.03 mg/kg and 0.5 mg/kg, respectively.

[2] = Peptide toxins in the blood / toxicokinetics in beagles with biliary drainage; format: in vivo, beagle dogs
Method: as §1, §2, §3
Toxicokinetic parameters were described in our previous study. Measurement data are reported as mean ± standard deviation values and enumeration data are reported as percentage (%). […] SPSS 22.0 (IBM Corporation, Armonk, NY, USA, 2015) was used for statistical analysis. The criterion for statistical significance was p ≤ 0.05. Except for the biliary drainage operation, the animals and methods in our present study are in accordance with our previously published study. Thus, by directly comparing the data from this study with those from our published studies on Amanita exitialis-exposed beagles without biliary drainage, we can evaluate the impact of biliary drainage on the toxicity and toxicokinetics of Amanita exitialis in beagles.

[3] = 0–1 days, 60 mg/kg with biliary drainage group
[4] = 20 mg/kg with biliary drainage group
[5] = 60 mg/kg with biliary drainage group
[6] = 1–2 days, 20 mg/kg with biliary drainage group
[7] = 1–2 days, 60 mg/kg with biliary drainage group
[8] = 2–3 days, 20 mg/kg with biliary drainage group
[9] = 2–3 days, 60 mg/kg with biliary drainage group
[10] = 3-4d, 20 mg/kg with biliary drainage group
[11] = 3-4d, 60 mg/kg with biliary drainage group
[12] = 3–4 days, 20 mg/kg with biliary drainage group
[13] = 3–4 days, 60 mg/kg with biliary drainage group
[14] = 60 mg/kg Amanita exitialis oral, biliary drainage, plasma, mean ± SD

## CC(C)[C@@H]1NC(=O)[C@H](C[C@@](C)(O)CO)NC(=O)[C@@H]2Cc3c([nH]c4ccccc34)SC[C@H](NC(=O)[C@@H]([C@H](O)C(=O)O)NC1=O)C(=O)N1C[C@@H](O)C[C@H]1C(=O)N[C@@H](C)C(=O)N2 [phallacidin] (cyclo(A[Trp(2-yl)][Leu(4R-OH,5-OH)]V[dAsp(3S-OH)]C[cisHyp]); thioether 2-6)
[1]; 0-1 d, 20 mg/kg with biliary drainage group
  detection rate of peptide toxins in urine: 100%
[1]; 0-1 d, 60 mg/kg with biliary drainage group
  detection rate of peptide toxins in urine: 100%
[1]; 0–1 days, 20 mg/kg with biliary drainage group
  daily amount excreted in urine: 0.0012 mg
[1]; 0–1 days, 20 mg/kg with biliary drainage group, 20 mg/kg
  percentage of total urine excretion excreted daily: more than 90%
[1]; 0–1 days, 20 mg/kg with biliary drainage group, listed as Phallacidin, 20 mg/kg
  percentage of total urine excretion excreted daily: 92.2%
[1]; [3]
  daily amount excreted in urine: 0.0017 mg
  percentage of total urine excretion excreted daily: 70.5%
[1]; [4]
  Total (accumulated) amount excreted in urine: 0.0014 mg
  percentage of total urine excretion, Total: 100%
  time within which toxin was detected in urine: two
[1]; [5]
  Total (accumulated) amount excreted in urine: 0.0025 mg
  percentage of total urine excretion, Total: 100%
  time within which toxin was detected in urine: three
[1]; 1-2 d, 20 mg/kg with biliary drainage group
  detection rate of peptide toxins in urine: 83%
[1]; 1-2 d, 60 mg/kg with biliary drainage group
  detection rate of peptide toxins in urine: 100%
[1]; [6]
  daily amount excreted in urine: 0.0001 mg
  percentage of total urine excretion excreted daily: 7.8%
[1]; [7]
  daily amount excreted in urine: 0.0005 mg
  percentage of total urine excretion excreted daily: 22.1%
[1]; 2-3 d, 20 mg/kg with biliary drainage group
  detection rate of peptide toxins in urine: 0%
[1]; 2-3d, 20 mg/kg with biliary drainage group, mean ± SD
  toxin content in urine: 0 µg/L
[1]; 2-3 d, 60 mg/kg with biliary drainage group
  detection rate of peptide toxins in urine: 50%
[1]; [8]
  daily amount excreted in urine: 0(0%) mg
  percentage of total urine excretion excreted daily: 0(0%)
[1]; [9]
  daily amount excreted in urine: 0.0002 mg
  percentage of total urine excretion excreted daily: 7.5%
[1]; [10]
  detection rate of peptide toxins in urine: 0%
  toxin content in urine: 0 µg/L
[1]; [11]
  detection rate of peptide toxins in urine: 0%
  toxin content in urine: 0 µg/L
[1]; [12]
  daily amount excreted in urine: 0(0%) mg
  percentage of total urine excretion excreted daily: 0(0%)
[1]; [13]
  daily amount excreted in urine: 0(0%) mg
  percentage of total urine excretion excreted daily: 0(0%)
[1]; beagles with biliary drainage, both dose groups
  share of total urine excretion in the 0–2-day urine: more than 90%
[2]; 0 h after ingestion, 20 mg/kg with biliary drainage group
  detection rate of peptide toxins in blood: 0%
[2]; 0 h after ingestion, 60 mg/kg with biliary drainage group
  detection rate of peptide toxins in blood: 0%
[2]; 60 mg/kg Amanita exitialis oral, biliary drainage, plasma, UPLC-ESI-MS/MS, mean ± SD
  T1/2: 0.62 ± 0.32 ^b,* h
[2]; [14]
  AUC (0–∞): 2.08 ± 2.06 ^b,* µg/L × h
  CL/F: 1.1 ± 0.86 ^b,* L/h/kg
  Cmax: 0.85 ± 0.37 ^b,* µg/L
  Dose normalized AUC (0–∞): 60.5 ± 60.2 ^b,*
  Dose normalized Cmax: 24.8 ± 10.8 ^b,*
  MRT (0–∞): 1.95 ± 0.73 ^b,* h
  Tmax: 1.38 ± 0.25 h
[2]; 0.25 h after ingestion, 20 mg/kg with biliary drainage group
  detection rate of peptide toxins in blood: 0%
[2]; 0.25 h after ingestion, 60 mg/kg with biliary drainage group
  detection rate of peptide toxins in blood: 33%
[2]; 0.5 h after ingestion, 20 mg/kg with biliary drainage group
  detection rate of peptide toxins in blood: 0%
[2]; 0.5 h after ingestion, 60 mg/kg with biliary drainage group
  detection rate of peptide toxins in blood: 33%
[2]; 1 h after ingestion, 20 mg/kg with biliary drainage group
  detection rate of peptide toxins in blood: 50%
[2]; 1 h after ingestion, 60 mg/kg with biliary drainage group
  detection rate of peptide toxins in blood: 100%
[2]; 1.5 h after ingestion, 20 mg/kg with biliary drainage group
  detection rate of peptide toxins in blood: 66%
[2]; 1.5 h after ingestion, 60 mg/kg with biliary drainage group
  detection rate of peptide toxins in blood: 100%
[2]; 2 h after ingestion, 20 mg/kg with biliary drainage group
  detection rate of peptide toxins in blood: 33%
[2]; 2 h after ingestion, 60 mg/kg with biliary drainage group
  detection rate of peptide toxins in blood: 100%
[2]; 3 h after ingestion, 20 mg/kg with biliary drainage group
  detection rate of peptide toxins in blood: 33%
[2]; 3 h after ingestion, 60 mg/kg with biliary drainage group
  detection rate of peptide toxins in blood: 50%
[2]; 4 h after ingestion, 20 mg/kg with biliary drainage group
  detection rate of peptide toxins in blood: 17%
[2]; 4 h after ingestion, 60 mg/kg with biliary drainage group
  detection rate of peptide toxins in blood: 50%
[2]; 5 h after ingestion, 20 mg/kg with biliary drainage group
  detection rate of peptide toxins in blood: 0%
[2]; 5 h after ingestion, 60 mg/kg with biliary drainage group
  detection rate of peptide toxins in blood: 33%
[2]; 6 h after ingestion, 20 mg/kg with biliary drainage group
  detection rate of peptide toxins in blood: 0%
[2]; 6 h after ingestion, 60 mg/kg with biliary drainage group
  detection rate of peptide toxins in blood: 17%
[2]; 8 h after ingestion, 20 mg/kg with biliary drainage group
  detection rate of peptide toxins in blood: 0%
[2]; 8 h after ingestion, 60 mg/kg with biliary drainage group
  detection rate of peptide toxins in blood: 0%
[2]; 10 h after ingestion, 20 mg/kg with biliary drainage group
  detection rate of peptide toxins in blood: 0%
[2]; 10 h after ingestion, 60 mg/kg with biliary drainage group
  detection rate of peptide toxins in blood: 0%
[2]; 12 h after ingestion, 20 mg/kg with biliary drainage group
  detection rate of peptide toxins in blood: 0%
[2]; 12 h after ingestion, 60 mg/kg with biliary drainage group
  detection rate of peptide toxins in blood: 0%
[2]; 24 h after ingestion, 20 mg/kg with biliary drainage group
  detection rate of peptide toxins in blood: 0%
[2]; 24 h after ingestion, 60 mg/kg with biliary drainage group
  detection rate of peptide toxins in blood: 0%
[2]; 36 h after ingestion, 20 mg/kg with biliary drainage group
  detection rate of peptide toxins in blood: 0%
[2]; 36 h after ingestion, 60 mg/kg with biliary drainage group
  detection rate of peptide toxins in blood: 0%
[2]; 48 h after ingestion, 20 mg/kg with biliary drainage group
  detection rate of peptide toxins in blood: 0%
[2]; 48 h after ingestion, 60 mg/kg with biliary drainage group
  detection rate of peptide toxins in blood: 0%
[2]; beagles with biliary drainage, oral Amanita exitialis
  time at which toxins were detected in plasma after ingestion: 30 min
[2]; male, beagle, dog, 60 mg/kg Amanita exitialis oral, biliary drainage, plasma, mean ± SD, read-out: Vz/F
  Vd/F: 1.77 ± 0.57 L/kg

— publication PMC6024615, “Effect of Biliary Drainage on the Toxicity and Toxicokinetics of Amanita exitialis in Beagles” (Toxins, 2018)
